Laboratory results: PubChem BioAssay (NCI)
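These data come from cells grown in 96-well plates and exposed to compound for 48 hours at five concentrations. GI50 = concentration required for 50% inhibition of growth. TGI denotes the concentration required for complete inhibition of growth.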

Columns and labels:
Assay in all cases: growth of human tumour cells (NCI), 48 h
SW-620 colon = test system: SW-620 colon
HL-60(TB) leukemia = test system: HL-60(TB) leukemia
NCI-H460 lung = test system: NCI-H460 lung
MDA-MB-435 = test system: MDA-MB-435
TK-10 renal = test system: TK-10 renal
HS 578T breast = test system: HS 578T breast
MDA-MB-231 breast = test system: MDA-MB-231 breast
HOP-92 NSCLC = test system: HOP-92 NSCLC
UACC-62 melanoma = test system: UACC-62 melanoma
HCT-116 colon = test system: HCT-116 colon
UO-31 renal = test system: UO-31 renal
T-47D breast = test system: T-47D breast
M14 melanoma = test system: M14 melanoma
SK-MEL-28 melanoma = test system: SK-MEL-28 melanoma
COLO 205 colon = test system: COLO 205 colon
RXF 393 renal = test system: RXF 393 renal
NCI-H23 lung = test system: NCI-H23 lung
HOP-62 NSCLC = test system: HOP-62 NSCLC
HCT-15 colon = test system: HCT-15 colon
SF-539 CNS = test system: SF-539 CNS
NCI/ADR-RES ovarian = test system: NCI/ADR-RES ovarian
MALME-3M melanoma = test system: MALME-3M melanoma
SK-MEL-2 melanoma = test system: SK-MEL-2 melanoma
SK-MEL-5 melanoma = test system: SK-MEL-5 melanoma
OVCAR-5 ovarian = test system: OVCAR-5 ovarian
786-0 renal = test system: 786-0 renal
A549 NSCLC = test system: A549 NSCLC
ACHN renal = test system: ACHN renal
SK-OV-3 ovarian = test system: SK-OV-3 ovarian
A498 renal = test system: A498 renal
SF-295 CNS = test system: SF-295 CNS
OVCAR-3 ovarian = test system: OVCAR-3 ovarian
CAKI-1 renal = test system: CAKI-1 renal
NCI-H226 lung = test system: NCI-H226 lung
PC-3 prostate = test system: PC-3 prostate
EKVX NSCLC = test system: EKVX NSCLC
U251 CNS = test system: U251 CNS
SR leukemia = test system: SR leukemia
HT29 colon = test system: HT29 colon
SF-268 CNS = test system: SF-268 CNS
KM12 colon = test system: KM12 colon
SNB-75 CNS = test system: SNB-75 CNS
BT-549 breast = test system: BT-549 breast
OVCAR-8 ovarian = test system: OVCAR-8 ovarian
K-562 leukemia = test system: K-562 leukemia
SN12C renal = test system: SN12C renal
OVCAR-4 ovarian = test system: OVCAR-4 ovarian
IGROV1 ovarian = test system: IGROV1 ovarian
MOLT-4 leukemia = test system: MOLT-4 leukemia
HCC-2998 colon = test system: HCC-2998 colon
CCRF-CEM leukemia = test system: CCRF-CEM leukemia
DU-145 prostate = test system: DU-145 prostate
UACC-257 melanoma = test system: UACC-257 melanoma
NCI-H522 lung = test system: NCI-H522 lung
SNB-19 CNS = test system: SNB-19 CNS

Work on CC(=O)Nc1cccc(Nc2nc(N[C@@H](C)c3ccccc3)c3ccccc3n2)c1 yielded a GI50 (SW-620 colon) of 425 nM, a TGI (SW-620 colon) of 5280 nM and a GI50 (HL-60(TB) leukemia) of 303 nM. For the same compound, the TGI (HL-60(TB) leukemia) was 868 nM, the GI50 (NCI-H460 lung) was 356 nM and the TGI (NCI-H460 lung) was 2100 nM. The GI50 (MDA-MB-435) was 169 nM, the TGI (MDA-MB-435) was 419 nM and the GI50 (TK-10 renal) was 6690 nM. It also gave a TGI (TK-10 renal) of 21200 nM, a GI50 (HS 578T breast) of 361 nM and a TGI (HS 578T breast) of 2510 nM. It also gave a GI50 (MDA-MB-231 breast) of 942 nM, a TGI (MDA-MB-231 breast) of 3600 nM and a GI50 (HOP-92 NSCLC) of 373 nM. It also gave a TGI (HOP-92 NSCLC) of 4940 nM, a GI50 (UACC-62 melanoma) of 380 nM and a TGI (UACC-62 melanoma) of 1930 nM. It also gave a GI50 (HCT-116 colon) of 459 nM, a TGI (HCT-116 colon) of 1940 nM and a GI50 (UO-31 renal) of 697 nM. The TGI (UO-31 renal) was 2330 nM, the GI50 (T-47D breast) was 512 nM and the TGI (T-47D breast) was 6470 nM. The GI50 (M14 melanoma) was 401 nM, the TGI (M14 melanoma) was 1610 nM and the GI50 (SK-MEL-28 melanoma) was 1000 nM. For the same compound, the TGI (SK-MEL-28 melanoma) was 2430 nM, the GI50 (COLO 205 colon) was 625 nM and the TGI (COLO 205 colon) was 4340 nM. The GI50 (RXF 393 renal) was 154 nM, the TGI (RXF 393 renal) was 581 nM and the GI50 (NCI-H23 lung) was 387 nM. For the same compound, the TGI (NCI-H23 lung) was 2690 nM, the GI50 (HOP-62 NSCLC) was 808 nM and the TGI (HOP-62 NSCLC) was 7080 nM. The GI50 (HCT-15 colon) was 355 nM, the TGI (HCT-15 colon) was 1910 nM and the GI50 (SF-539 CNS) was 318 nM. It also gave a TGI (SF-539 CNS) of 1140 nM, a GI50 (NCI/ADR-RES ovarian) of 464 nM and a TGI (NCI/ADR-RES ovarian) of 4750 nM. For the same compound, the GI50 (MALME-3M melanoma) was 470 nM, the TGI (MALME-3M melanoma) was 1900 nM and the GI50 (SK-MEL-2 melanoma) was 832 nM. The TGI (SK-MEL-2 melanoma) was 6010 nM, the GI50 (SK-MEL-5 melanoma) was 292 nM and the TGI (SK-MEL-5 melanoma) was 1070 nM. It also gave a GI50 (OVCAR-5 ovarian) of 1390 nM, a TGI (OVCAR-5 ovarian) of 11600 nM and a GI50 (786-0 renal) of 630 nM. For the same compound, the TGI (786-0 renal) was 4280 nM, the GI50 (A549 NSCLC) was 601 nM and the TGI (A549 NSCLC) was 5970 nM. The GI50 (ACHN renal) was 672 nM, the TGI (ACHN renal) was 6900 nM and the GI50 (SK-OV-3 ovarian) was 679 nM. It also gave a TGI (SK-OV-3 ovarian) of 15200 nM, a GI50 (A498 renal) of 278 nM and a TGI (A498 renal) of 1500 nM. It also gave a GI50 (SF-295 CNS) of 377 nM, a TGI (SF-295 CNS) of 1560 nM and a GI50 (OVCAR-3 ovarian) of 359 nM. It also gave a TGI (OVCAR-3 ovarian) of 1540 nM, a GI50 (CAKI-1 renal) of 374 nM and a TGI (CAKI-1 renal) of 2770 nM. It also gave a GI50 (NCI-H226 lung) of 738 nM, a TGI (NCI-H226 lung) of 21600 nM and a GI50 (PC-3 prostate) of 408 nM. For the same compound, the TGI (PC-3 prostate) was 11400 nM, the GI50 (EKVX NSCLC) was 656 nM and the TGI (EKVX NSCLC) was 16500 nM. It also gave a GI50 (U251 CNS) of 525 nM, a TGI (U251 CNS) of 2900 nM and a GI50 (SR leukemia) of 253 nM. For the same compound, the TGI (SR leukemia) was 2580 nM, the GI50 (HT29 colon) was 362 nM and the TGI (HT29 colon) was 5050 nM. The GI50 (SF-268 CNS) was 571 nM, the TGI (SF-268 CNS) was 3280 nM and the GI50 (KM12 colon) was 439 nM. It also gave a TGI (KM12 colon) of 6450 nM, a GI50 (SNB-75 CNS) of 194 nM and a TGI (SNB-75 CNS) of 820 nM. The GI50 (BT-549 breast) was 3620 nM, the TGI (BT-549 breast) was 18700 nM and the TGI (OVCAR-8 ovarian) was 9300 nM. It also gave a GI50 (K-562 leukemia) of 270 nM, a TGI (K-562 leukemia) greater than 100000 nM and a GI50 (SN12C renal) of 608 nM. For the same compound, the TGI (SN12C renal) was 2860 nM, the GI50 (OVCAR-4 ovarian) was 784 nM and the TGI (OVCAR-4 ovarian) was 11800 nM. The GI50 (IGROV1 ovarian) was 507 nM, the TGI (IGROV1 ovarian) was 2950 nM and the GI50 (MOLT-4 leukemia) was 491 nM. It also gave a TGI (MOLT-4 leukemia) of 6820 nM, a GI50 (HCC-2998 colon) of 982 nM and a TGI (HCC-2998 colon) of 2530 nM. The GI50 (CCRF-CEM leukemia) was 372 nM, the GI50 (DU-145 prostate) was 651 nM and the TGI (DU-145 prostate) was 6400 nM. The GI50 (UACC-257 melanoma) was 1180 nM, the TGI (UACC-257 melanoma) was 3430 nM and the GI50 (NCI-H522 lung) was 322 nM. It also gave a TGI (NCI-H522 lung) of 2180 nM, a GI50 (SNB-19 CNS) of 500 nM and a TGI (SNB-19 CNS) of 12600 nM.
